From patent US12728156B2, “Tumor cell-derived exosomes and method of treating colorectal cancer” (REGENTS OF THE UNIVERSITY OF MINNESOTA, priority 2020, dated 2026)

Legend:
CT26 tumors = assay: Mass cytometry immune profiling of treated CT26 tumors; type: in vivo, mice
From the text: FIGS. 18A-18I show the tumor immunological response to 5-FU and anti-4-1BB treatments in CT26 tumors. […] PD-L1, Ki-67, CD80, and CD86 expression were quantified in whole tumor tissue. […] See also FIGS. 25-27.
FIGS. 27A-27H show the tumor immunological response to 5-FU and anti-PD-1 treatments in CT26 tumors. Related to FIG. 18.
Tumor samples were collected and digested using standard flow cytometry procedure. A total of 3 million single cells were used for each mass cytometry staining. In brief, the single cell pellets were first incubated with Cell-ID Cisplatin with a final concentration of 5 μM for 5 min at RT to identify dead cells. Cells were then washed and blocked by Fc-receptor blocking solution. Cell membrane staining was then performed with metal-conjugated antibodies for 30 min at RT. After staining, cells were fixed and permeabilized. The intracellular staining antibodies were then added and incubated for 45 min at RT. Finally, cells were labeled with 1 ml 1,000× diluted 125 μM Cell-ID intercalator-Ir to stain all cells in MaxPar Fix and Perm Buffer overnight at 4° C. EQ Four Element Calibration Beads with the reference EQ passport P13H2302 were added to each staining tube right before data acquisition by a CyTOF 2 mass cytometer. The mass cytometry data were then normalized and exported for gating on alive single cells, which were then imported to the Cytobank software. A t-SNE analysis was performed with default parameters (perplexity, 30; iterations, 1,000) on all cell types in tumor samples.

[1] = 5-FU toxicity evaluation (body weight, diarrhea score); type: in vivo, mice; settings: monotherapy
Experimental: FIGS. 24A-24D show the side effects of different treatments. Related to FIG. 16. FIGS. 24A-24B show mouse body weight, which was measured on day 12, 24, and 32 during treatment. […] FIGS. 24C-24D show the results of a diarrhea assessment, which was performed at the endpoint of mice follow-up to evaluate the side effects on mouse intestine.
Toxicity is a primary concern for cancer treatments, especially in combination therapy. We took this into account by evaluating the side effects of each treatment.
We recorded animal body weight and diarrhea scores after treatments. Mice were weighed on day 12, 24, and 32 after treatment. The diarrhea score was assessed at the endpoint of each treatment by using a 4-point scoring system: 0=normal stool; 1=slight diarrhea (soft formed stool without perianal staining of the coat); 2=moderate diarrhea (unformed stool with moderate perianal staining of the coat); and 3=severe diarrhea (watery stool with severe perianal staining of the coat) (Song et al., 2013).

CT26 and MC38 tumors = assay: Established tumor model, 5-FU and anti-4-1BB schedules; settings: monotherapy
T cells = assay: T cell depletion in naïve mice; type: in vivo
Experimental: FIGS. 23A-23D show the T cell depleting effects of 5-FU and anti-CD3 treatment. Related to FIGS. 14 and 16-18.
We tested the effects of 5-FU treatment and 5-FU and anti-4-1BB combination treatment on T cell depletion in vivo. Intraperitoneal administration of anti-CD3 treatment (clone: 17A2, BioXcell, 5 mg/kg every 3 days) was given to induce T cell depletion in mice. One dose of 5-FU (150 mg/kg) or 5-FU (150 mg/kg) and anti-4-1BB (5 mg/kg) combination treatment was given intraperitoneally in naïve mice. Mice were sampled on days 2, 4, 7, and 9 after treatment for quantifying T cells in lymph nodes, spleen, bone marrow, and blood circulation.

[2] = tested on: miR-424 levels in T-cells and DCs; assay: CT26 tumor cells co-cultured with naïve T-cells and DCs, miR-424 level; type: cell-based, mouse; settings: co-culture with CT26 tumor cells; EV production blocked
Experimental: miR-424 levels were analyzed across different samples, including tumor cells, immune cells, and EVs (FIG. 3A). To determine whether EVs can be up-taken by T-cells and DCs, CT26-WT cell line-derived EVs were stained with Dio dye and incubated with mouse naïve T-cells and DCs. Images taken using confocal microscopy confirmed the presence of Dio labeled EVs inside the T-cells and DCs (FIG. 3B). Next, CT26 tumor cells were co-cultured with naïve T-cells and DCs, which lead to a significant increase in miR-424 levels in both T-cells and DCs (FIG. 3C). Importantly, this increase in miR-424 could be neutralized by blocking the production of EVs in the co-culture system using GW4869 (FIG. 3C). To determine whether this tumor-derived EVs were being engulfed by the immune cells, CD63-GFP transfected CT26 tumor cells were injected into mice to establish a subcutaneous tumor model. […] Next, we sought to determine whether these effects could be eliminated by knocking out miR-424 in tumors. To this end, T-cells and DCs were isolated from the spleens of healthy mice, and of mice with wild-type tumors or miR-424 knockout (KO) tumors using flow cytometry sorting. miR-424 level was measured in the sorted T-cells and DCs by qPCR. […] Next, to study the impact of EV miR-424 expression on T-cell co-stimulation, the Jurkat cell and Raji cell conjugation assays were used. […]

IL-2 production = assay: Jurkat-Raji conjugation system co-cultured with human CRC derived organoids; type: cell-based; settings: EVs secretion blocked in the co-culture system
Experimental: miR-424 levels were analyzed across different samples, including tumor cells, immune cells, and EVs (FIG. 3A). To determine whether EVs can be up-taken by T-cells and DCs, CT26-WT cell line-derived EVs were stained with Dio dye and incubated with mouse naïve T-cells and DCs. Images taken using confocal microscopy confirmed the presence of Dio labeled EVs inside the T-cells and DCs (FIG. 3B). Next, CT26 tumor cells were co-cultured with naïve T-cells and DCs, which lead to a significant increase in miR-424 levels in both T-cells and DCs (FIG. 3C). Importantly, this increase in miR-424 could be neutralized by blocking the production of EVs in the co-culture system using GW4869 (FIG. 3C). To determine whether this tumor-derived EVs were being engulfed by the immune cells, CD63-GFP transfected CT26 tumor cells were injected into mice to establish a subcutaneous tumor model. […] To this end, T-cells and DCs were isolated from the spleens of healthy mice, and of mice with wild-type tumors or miR-424 knockout (KO) tumors using flow cytometry sorting. miR-424 level was measured in the sorted T-cells and DCs by qPCR. […]
The Jurkat-Raji cells conjugation system was used for understanding the impacts of human tumor organoid-derived EVs on co-stimulation as well. […] Concentration of IL-2 was quantified in the co-culture system.

SMILES	frequency of MDSCs (CT26 tumors; 5-FU monotherapy and combination treatment)	CD80 expression and MDSCs in tumor tissue (CT26 tumors; 5-FU treatment)	T-cell population in the tumor microenvironment (CT26 tumors; 5-FU treatment)	side effects [1]	tumor growth and survival time (CT26 and MC38 tumors)	T cell depletion (T cells)	time to recovery of the T cell population (T cells; after 5-FU treatment)	increase in miR-424 levels in T-cells and DCs [2]	suppression of IL-2 production by organoids (IL-2 production)
O=c1[nH]cc(F)c(=O)[nH]1 [5-FU, 5-fluorouracil]	decreased	upregulated CD80 expression and depleted MDSCs	suppressed the T-cell population	severe body weight loss and diarrhea	delayed tumor development	depleted T cells in lymphatic organs, blood circulation, and bone marrow	around 9 days		
O=C(/C=C/c1ccc(/C=C/C(=O)Nc2ccc(C3=NCCN3)cc2)cc1)Nc1ccc(C2=NCCN2)cc1 [GW4869]								neutralized	neutralized
